According to ChEMBL document CHEMBL1135942, “Synthesis of 5,6-dihydro-11H-benzo[5,6]-cyclohepta[1,2-b]pyridin-11-ylidene)-1-piperidine-N-cyanoguanidine derivatives as inhibitors of ras farnesyl protein transferase” (Bioorg Med Chem Lett, 2002):

Target: Protein farnesyltransferase (Homo sapiens, UniProt P49354+P49356)
Test: FPT inhibitory activity was determined by the ability to inhibit the transfer of [3H]farnesyl from farnesyl pyrophosphate to H-ras-CLVS
Assay type: protein-complex assay

Compound	IC50 [nM]
N#CN=C(N)N1CCC(=C2c3ccc(Cl)cc3CCc3cc(Br)cnc32)CC1	2600
CC(C)NC(=NC#N)N1CCC(=C2c3ccc(Cl)cc3CCc3cc(Br)cnc32)CC1	124
O=C(CN1CCC(=C2c3ccc(Cl)cc3CCc3cccnc32)CC1)c1ccccc1	15800
CC(C)c1ccc(N/C(=N\C#N)N2CCC(=C3c4ccc(Cl)cc4CCc4cc(Br)cnc43)CC2)cc1	150
N#CN=C(NCC1CCCCC1)N1CCC(=C2c3ccc(Cl)cc3CCc3cc(Br)cnc32)CC1	199
N#CN=C(NC1CC1)N1CCC(=C2c3ccc(Cl)cc3CCc3cc(Br)cnc32)CC1	155
N#CN/C(=N/CCOCCO)N1CCC(=C2c3ccc(Cl)cc3CCc3cc(Br)cnc32)CC1	84
N#C/N=C(\Nc1ccc([N+](=O)[O-])cc1)N1CCC(=C2c3ccc(Cl)cc3CCc3cc(Br)cnc32)CC1	62
N#CN=C(NCc1ccccc1)N1CCC(=C2c3ccc(Cl)cc3CCc3cc(Br)cnc32)CC1	230
N#CN=C(Nc1ccccc1)N1CCC(=C2c3ccc(Cl)cc3CCc3cc(Br)cnc32)CC1	116
N#C/N=C(\Nc1ccc(OC(F)(F)F)cc1)N1CCC(=C2c3ccc(Cl)cc3CCc3cc(Br)cnc32)CC1	320
COc1ccc(C/N=C(/NC#N)N2CCC(=C3c4ccc(Cl)cc4CCc4cc(Br)cnc43)CC2)cc1	310
N#CN/C(=N/CCO)N1CCC(=C2c3ccc(Cl)cc3CCc3cc(Br)cnc32)CC1	170
N#CN/C(=N/Cc1ccc2c(c1)OCO2)N1CCC(=C2c3ccc(Cl)cc3CCc3cc(Br)cnc32)CC1	240
CCCCNC(=NC#N)N1CCC(=C2c3ccc(Cl)cc3CCc3cc(Br)cnc32)CC1	105
N#CN/C(=N/c1ccncc1)N1CCC(=C2c3ccc(Cl)cc3CCc3cc(Br)cnc32)CC1	< 110
CN(C)CCCC/N=C(/NC#N)N1CCC(=C2c3ccc(Cl)cc3CCc3cc(Br)cnc32)CC1	74
N#CN/C(=N/c1ccccc1)N1CCC(=C2c3ccc(Cl)cc3CCc3cccnc32)CC1	86
CS(=O)(=O)c1ccc(N/C(=N\C#N)N2CCC(=C3c4ccc(Cl)cc4CCc4cc(Br)cnc43)CC2)cc1	82
CN(C)c1ccc(CNC(=NC#N)N2CCC(=C3c4ccc(Cl)cc4CCc4cc(Br)cnc43)CC2)cc1	100

Continued by falling IC50, values first:

IC50 [nM]	Compound
58	N#CN=C(NCCc1cnc[nH]1)N1CCC(=C2c3ccc(Cl)cc3CCc3cc(Br)cnc32)CC1
42	CCOC(=O)N1CCC(NC(=NC#N)N2CCC(=C3c4ccc(Cl)cc4CCc4cc(Br)cnc43)CC2)CC1
38	N#CN=C(Nc1ccc2c(c1)OCO2)N1CCC(=C2c3ccc(Cl)cc3CCc3cc(Br)cnc32)CC1
38	N#CN=C(Nc1ccc(F)cc1)N1CCC(=C2c3ccc(Cl)cc3CCc3cc(Br)cnc32)CC1
35	N#CN/C(=N/CCCn1ccnc1)N1CCC(=C2c3ccc(Cl)cc3CCc3cc(Br)cnc32)CC1
32	N#CN=C(Nc1ccc(C#N)cc1)N1CCC(=C2c3ccc(Cl)cc3CCc3cc(Br)cnc32)CC1
30	N#CN/C(=N/CCc1ccncc1)N1CCC(=C2c3ccc(Cl)cc3CCc3cc(Br)cnc32)CC1
29	N#CN/C(=N/Cc1ccccn1)N1CCC(=C2c3ccc(Cl)cc3CCc3cc(Br)cnc32)CC1
20	N#CN/C(=N/C1CCCCC1)N1CCC(=C2c3ccc(Cl)cc3CCc3cc(Br)cnc32)CC1
18	N#CN=C(NCC1CCNCC1)N1CCC(=C2c3ccc(Cl)cc3CCc3cc(Br)cnc32)CC1
15	N#CN=C(Nc1ccc2c(c1)COCO2)N1CCC(=C2c3ccc(Cl)cc3CCc3cc(Br)cnc32)CC1
15	N#CN=C(NCc1cccnc1)N1CCC(=C2c3ccc(Cl)cc3CCc3cc(Br)cnc32)CC1
12	N#CN=C(NCc1ccc[n+]([O-])c1)N1CCC(=C2c3ccc(Cl)cc3CCc3cc(Br)cnc32)CC1
8.2	O=C(Cc1ccc[n+]([O-])c1)N1CCC([C@H]2c3ncc(Br)cc3CCc3cc(Cl)cc(Br)c32)CC1
6	N#CN/C(=N/Cc1cc[n+]([O-])cc1)N1CCC(=C2c3ccc(Cl)cc3CCc3cc(Br)cnc32)CC1
6	N#CN/C(=N/CC1CCN(C(N)=O)CC1)N1CCC(=C2c3ccc(Cl)cc3CCc3cc(Br)cnc32)CC1
1.7	N#CN/C(=N/Cc1ccc[n+]([O-])c1)N1CCC([C@H]2c3ncc(Br)cc3CCc3cc(Cl)cc(Br)c32)CC1
